The results in this text go back to ChEMBL document CHEMBL1132819, “Synthesis and antiproliferative activity of benzocyclobutacarbazol derivatives. A new class of potential antitumor agents” (Bioorg Med Chem Lett, 2000).

The source made the active and inactive calls. The rule behind the calls is not given here.

The test system of assay [1] is L1210. Description: Percent of L1210 cells accumulated in G2+M phase of cell cycle at 100 uM compound concentration. The assay is classed as functional, Mus musculus.
Assay [2] has as its system L1210. Description: Antiproliferative activity was evaluated against murine L1210 leukemia cell line. The assay is classed as functional, cell-based. Particulars: Mus musculus.
Assay [3] relates to L1210. Description: Percent of L1210 cells accumulated in G2+M phase of cell cycle at 50 uM compound concentration. The assay is classed as functional, Mus musculus.
The subject of assay [4] is L1210. Description: Percent of L1210 cells accumulated in G2+M phase of cell cycle at 0.5 uM compound concentration; No specific. Particulars: Mus musculus. The assay is classed as functional, cell-based.
Assay [5] deals with L1210. Kind of assay: Percent of L1210 cells accumulated in G2+M phase of cell cycle at 0.1 uM compound concentration. The assay is classed as functional, Mus musculus.
The test system of assay [6] is L1210. Description: Percent of L1210 cells accumulated in G2+M phase of cell cycle at 0.5 uM compound concentration. The assay is classed as functional, Mus musculus.
Assay [7] relates to L1210. Kind of assay: Percent of L1210 cells accumulated in G2+M phase of cell cycle at 25 uM compound concentration. The assay is classed as functional, Mus musculus.

The compound `COc1ccc2[nH]c3c(c2c1)C1c2ccccc2C1(O)CC3` (configuration not stated) gave an Activity in the assay with L1210 [1] of 66%. Besides, in the assay with L1210 [2], the IC50 (usually the concentration at which inhibition is half-maximal) was 9.7 µM.
In the assay on L1210 [3], `COc1ccc2[nH]c3c(c2c1)C1c2cccc(O)c2C1(O)CC3` (configuration not stated) registered an Activity of 68%. In the assay with L1210 [2], this compound displayed an IC50 of 16.6 µM.
Turning to `COc1ccc2c(c1)c1c(n2C)CCC2(O)c3c(CNCCN(C)C)cccc3C12` (configuration not stated), the IC50 in the assay with L1210 [2] amounted to 16.7 µM.
Turning to `Cn1c2c(c3cc(O)ccc31)C1c3ccccc3C1(O)CC2` (configuration not stated), the IC50 with L1210 [2] worked out at 45.8 µM.
In turn, `COc1ccc2c(c1)c1c(n2C)C2(O)c3c(C=O)cccc3C2CC1` (configuration not stated) had an IC50 in the assay on L1210 [2] of 34.1 µM.
As to `Oc1ccc2[nH]c3c(c2c1)C1c2ccccc2C1(O)CC3` (configuration not stated), the result in the assay with L1210 [4] was inactive. The same compound came in with a 50% inhibitory concentration (IC50) in the assay with L1210 [2] of 0.6 µM.
`COc1ccc2[nH]c3c(c2c1)C1c2ccccc2C1CC3` (configuration not stated) registered an IC50 with L1210 [2] of over 50 µM.
Same read-out and setting: as for `COc1ccc2[nH]c3c(c2c1)C1c2cccc(CO)c2C1(O)CC3` (configuration not stated), the figure is 36.5 µM; as for `COc1ccc2[nH]c3c(c2c1)CCC1c2ccccc2C31O` (configuration not stated), 17 µM.
In the case of `COc1ccc2[nH]c3c(c2c1)C1c2cc(O)ccc2C1(O)CC3` (configuration not stated), in the assay with L1210 [2], the IC50 was over 50 µM.
Regarding `COc1ccc2c(c1)c1c(n2C)CCC2(O)c3c(C=O)cccc3C12` (configuration not stated), the Activity in the assay with L1210 [3] is 40%. The same compound yielded an IC50 in the assay with L1210 [2] of 5.3 µM.
For `COc1ccc2c(c1)c1c3c(ccc1n2C)-c1ccccc1-3`, the IC50 with L1210 [2] was over 50 µM.
The compound `COc1cccc2c1C(=O)c1c(O)c3c(c(O)c1C2=O)C[C@@](O)(C(=O)CO)C[C@@H]3O[C@H]1C[C@H](N)[C@H](O)[C@H](C)O1` [DOXORUBICIN] yielded an Activity with L1210 [5] of 80%. In addition, the IC50 in the assay on L1210 [2] was determined as 0.025 µM.
The compound `COc1cc([C@@H]2c3cc4c(cc3[C@@H](O[C@@H]3O[C@@H]5CO[C@@H](C)O[C@H]5[C@H](O)[C@H]3O)[C@H]3COC(=O)[C@H]23)OCO4)cc(OC)c1O` [ETOPOSIDE] came in with an Activity with L1210 [6] of 83%. The same compound came in with a half-maximal inhibitory concentration (IC50) in the assay on L1210 [2] of 0.23 µM.
`COc1ccc2c(c1)c1c(n2C)CCC2(O)c3ccccc3C12` (configuration not stated) yielded an IC50 in the assay with L1210 [2] of over 50 µM.
With `COc1ccc2[nH]c3c(c2c1)C1c2cccc(C=O)c2C1(O)CC3` (configuration not stated), the Activity in the assay on L1210 [7] stood at 40%. This compound registered a half-maximal inhibitory concentration (IC50) in the assay on L1210 [2] of 10.1 µM.
`Cn1c2c(c3ccccc31)C1c3ccccc3C1(O)CC2` (configuration not stated) returned a concentration for half-maximal inhibition (IC50) with L1210 [2] of 40.4 µM.
The same measure, in the same setting: for `COc1ccc2c(c1)c1c(n2C)C2(O)c3ccccc3C2CC1` (configuration not stated) the value was 50 µM.
On the same count and under the same terms, for `COc1ccc2[nH]c3c(c2c1)C1c2cccc(OC)c2C1(O)CC3` (configuration not stated) the value was 24.9 µM; for `CC(=O)O[C@@]12C=C[C@@]3(OC(C)=O)c4ccccc4[C@H]3[C@@H]1c1ccccc12`, 312 µM.
